Entries after “also recorded” stand apart in the source; their conditions may differ.
How the values were obtained:
[1] = test system: RANTES-induced chemotaxis; experiment: RANTES-/MIP1α-induced chemotaxis (ChemoTx transwell); format: cell-based; details: RANTES per text, 25 ng/ml MIP1α per Fig 2f legend; 5 × 10^4 cells per well; 2 h, 37°C; MTT; triplicate
Protocol: Figure 2 Effect of Peptide 3 on gp120:V3 loop peptide binding to cells. (a) The binding of 100 μM N-terminal biotinylated gp120:V3(IIIb) to THP-1 cells was measured in the presence of various concentrations of peptide 3. In each case, the non-specific binding (in the presence of 10 mM unlabelled gp120:V3 loop peptide) has been subtracted. (b) Chemotaxis in response to 100 ng/ml SDF1α was measured in the presence of various concentrations of peptide 3. […] (e) As for (a) except that the effect of Peptide 3 on the binding of gp120:V3(BaL) to THP-1 cells was determined. (f) As for (b) except that the effect of Peptide 3 on chemotaxis induced by 25 ng/ml MIP1α was determined. All binding reactions were performed with 10^6 cells in 100 μl of binding medium at 4°C. Chemotaxis assays were performed with 5 × 10^4 cells per well. Values are mean ± SEM of triplicate determinations.
Chemotaxis experiments were performed essentially as previously described, using the ChemoTx disposable 96-well transwell migration plates, with PVP-free membrane (6 μm pore size). […] The number of cells which had migrated to the lower compartment was determined using the vital dye MTT and interpolation of a standard curve. Each condition was determined in triplicate, and the number of cells migrating in the absence of chemoattractant was subtracted to determine the chemokine-dependent chemotaxis which was reported.

[2] = test system: CCR5; experiment: Specific binding of biotinylated gp120:V3(BaL) peptide to THP-1 cells; details: 100 μM biotinylated gp120:V3(BaL); various concentrations of Peptide 3; 10^6 cells in 100 μl, 4°C; non-specific binding (10 mM unlabelled peptide) subtracted
Protocol: The binding of gp120 to chemokine receptors is likely to involve sequences in the V3 loop of gp120 [28, 20]. We therefore synthesised peptide sequences from the V3 loop of the M-tropic BaL strain and the T-tropic IIIb strain and analysed the binding of these biotinylated peptides to the THP-1 and Jurkat cells. Specific (competable) binding of gp120:V3(BaL) to THP-1 cells was detected at 100 μM (Fig 1a). In contrast, specific binding of gp120:V3(BaL) to Jurkat cells was not detected even at concentrations up to 500 μM (Fig 1a). […]
Figure 1 Specific binding of gp120:V3 loop peptides to THP-1 and Jurkat cells. […] Specific binding is expressed as the absorbance in the absence of unlabelled peptide minus the absorbance in the presence of competitor (b) Binding of gp120:V3(IIIb)-biotin under the same conditions as in (a). […]
Cells (either Jurkat T-cells or THP-1 cells) were grown in RPMI 1640 medium supplemented with 10% fetal calf serum, 2 mM glutamine, 20 μM β-mercaptoethanol, 100 U/ml penicillin and 100 μg/ml streptomycin and maintained between 2 × 10^5 and 1 × 10^6 cells/ml. […] The plate was spun (3,000 × g; 3 mins) and 200 μl of the coloured product was transferred to an empty 96-well ELISA plate and the absorbance at 450 nm determined.

[3] = test system: HIV (IIIb); experiment: HIV (IIIb) replication in Jurkat T-cells, supernatant reverse transcriptase activity; format: cell-based; details: HIV-1 IIIb 10^6 TCID50; Peptide 3 100 μM; two weeks; six separate experiments
Protocol: HIV infection of Jurkat T-cells using the laboratory-adapted T-tropic isolate IIIb was monitored using two different assays. Firstly, Jurkat T-cells in 96-well plates were pre-treated with either Peptide 3, vehicle (as a negative control) or SDF1α (as a positive control) for 4 hours, then exposed to HIV virus (10^6 TCID50) and pulsed at 2–3 day intervals with Peptide 3, SDF1α or medium alone as appropriate. After two weeks in culture, the extent of viral infection was assayed by measuring the reverse transcriptase activity in the supernatant, as a measure of viral replication in the culture In six separate experiments, Peptide 3 (100 μM) had no effect on virus replication following HIV exposure (Fig 3a), while SDF1α inhibited reverse transcriptase activity by an average of 75%. No effect was seen on cell viability under any of the treatment conditions.
HIV-1 stocks were prepared in the following manner. HIV-1 IIIb (provided by the MRC AIDS Reagent Programme) was used to infect Jurkat T cells and the progression of infection was monitored using the reverse transcriptase assay for 10–14 days. […] Stocks of HIV-1 MN strain were prepared in a similar manner, except that H9 T cells were used and the progression of infection was monitored by immunofluoresence (because of the low RT activity) in this strain. […]

EICADPKQKWVQ [Peptide 3]
Effect on RANTES-induced chemotaxis [1]: powerfully inhibited; also recorded: profoundly blocked
Effect on gp120 binding to CCR5 (gp120:V3(BaL) to THP-1 cells) [2]: no effect; also recorded: unaffected
Effect on virus replication following HIV exposure (reverse transcriptase activity) [3]: no effect
